Results taken from article PMC12495443, “Developing inhibitors of the guanosine triphosphate hydrolysis accelerating activity of Regulator of G protein Signaling-14 [drawing 1]” (The Journal of Biological Chemistry, 2025).
Substitutions are numbered along the chain they refer to. pIC50: −log10 of the molar value. “Also recorded” adds a separate entry of the source.

Assays:
[1] = biological target: T1, human RGS14 RGS-box (wild-type) (Homo sapiens, UniProt O43566); experiment: Transcreener GDP RGScreen fluorescence polarization assay of RGS14 RGS-box GAP activity on Gαi1(DM); type: biochemical; conditions: for IC50: wild-type RGS14 RGS-box GAP activity, Gαi1(DM), Transcreener GDP RGScreen, read-out: RGS14 pIC50 (converted)
T1 construct: human RGS14 RGS-box (aa 46–195 of UniProt O43566); host or cells: E. coli
T1 sequence (O43566 46-195): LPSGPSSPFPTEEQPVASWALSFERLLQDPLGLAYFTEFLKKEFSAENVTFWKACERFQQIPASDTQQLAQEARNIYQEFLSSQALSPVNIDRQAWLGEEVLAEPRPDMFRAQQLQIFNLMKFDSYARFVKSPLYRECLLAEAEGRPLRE
Summary of the method: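 Steady-state GTP hydrolysis by rate-altered double point-mutant Gαi1 was read by Transcreener GDP fluorescence polarization, with GTP conversion kept below 10% of maximum input. The E. coli-expressed, N-terminal His6-tagged wild-type RGS-boxes were RGS12 aa 695–843 and RGS14 aa 46–195.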

[2] = biological target: T2, human RGS12 RGS-box (wild-type) (Homo sapiens, UniProt O14924); experiment: Transcreener GDP RGScreen fluorescence polarization assay of RGS12 RGS-box GAP activity on Gαi1(DM); type: biochemical; conditions: wild-type RGS12 RGS-box GAP activity, Gαi1(DM), read-out: RGS12 pIC50 (converted)
T2 construct: human RGS12 RGS-box (aa 695–843 of UniProt O14924); host or cells: E. coli
T2 sequence (O14924 695-843): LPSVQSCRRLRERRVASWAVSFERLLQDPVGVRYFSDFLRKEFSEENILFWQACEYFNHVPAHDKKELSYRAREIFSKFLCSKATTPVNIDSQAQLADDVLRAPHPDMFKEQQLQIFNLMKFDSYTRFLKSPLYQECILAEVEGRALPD
From the text: We previously described work with BellBrook Labs creating the Transcreener GDP RGScreen fluorescence polarization assay of steady-state GTP hydrolysis, leveraging a double point-mutant in the Gα enzyme to make GTP hydrolysis, rather than GDP (product) release, the rate-limiting step for multiple rounds of GTP conversion ([57], [59]). […] Titrating inputs of the double point-mutant (“DM”) Gαi1 and RGS-box recombinant proteins (Fig. S2, B and C) established a robust, medium-throughput assay for evaluating potential RGS14 and RGS12 inhibitors, with “assay quality” Z′ scores ([60]) above 0.76 for each target (Fig. S2D).
Reagents and protocols for the fluorescence anisotropy-based Transcreener GDP RGScreen assay using a rate-altered, double point-mutant, recombinant Gαi1 protein have been extensively described previously ([43], [44]); reactions were always performed so that total GTP converted over the time course was consistently less than 10% of reaction maximum input. Specific methods for its application in assessing RGS14 and RGS12 GAP activity are summarized as follows. Open-reading frames (ORFs) encoding wild-type versions of the human RGS14 RGS-box (aa 46–195 of UniProt O43566) and human RGS12 RGS-box (aa 695–843 of UniProt O14924) were each sub-cloned in-frame with an N-terminal hexahistidine (His6) expression tag in the plasmid pET30a, expressed in E. coli cultures, and then purified by nickel-nitriloacetate (Ni-NTA) and size-exclusion (Superdex 200) column chromatographies by GenScript using previously described methods ([35]). These recombinant His6-tag fusion proteins were stored at −80 °C in storage buffer (150 mM NaCl, 50 mM Tris-HCl pH 8.0, 10% glycerol) before thawing and use. Cysteine-less versions were similarly produced by ORF site-directed mutagenesis: for RGS14, codons for cysteine residues 47 and 130 (numbered as in PDB id 2JNU) were replaced with serine codons; for RGS12, codons for cysteines 4, 51, 78, and 134 (numbered in relation to PDB id 2EBZ) were replaced with serine codons. Use of Transcreener GDP-detection reagents to assess compound inhibition of Naegleria fowleri Gα7 protein GTPase activity ([83]) has previously been described ([84]).

[3] = biological target: T3, RGS14 RGS-box (GAP activity on wild-type Gαi1) (Homo sapiens, UniProt O43566); experiment: Single-turnover [γ-33P]GTP hydrolysis assay of RGS-box GAP activity; type: biochemical; conditions: wild-type Gαi1, concentration-dependent
T3 sequence (O43566 67-184 limits assumed): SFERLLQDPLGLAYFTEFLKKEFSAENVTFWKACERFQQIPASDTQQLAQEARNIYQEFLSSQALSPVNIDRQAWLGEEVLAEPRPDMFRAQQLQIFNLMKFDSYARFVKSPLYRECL
From the text: To further evaluate the functional activity of these triazolothiadiazine derivatives, and especially to eliminate concerns of misascribing GAP-inhibitory activity to potential assay interference, we tested two representative compounds—Z55660043 and Z55627844—in the gold-standard single-turnover radioactive GTP hydrolysis assay ([7], [58]) (Fig. 6).
The single-turnover radiolabeled-GTP hydrolysis assay is the gold standard assay for RGS-box GAP activity, first described using [γ -^32P]GTP by Berman et al. ([7]) and recently modified for modern performance ([91], [92], [93], [94]) to use readily available [γ-^33P]GTP substrate and perchloric acid quenching. The assay was performed by first pre-loading wild-type (WT) Gα protein (i.e., 750 nM purified, recombinant, wild-type-sequence human Gαi1 protein) with a slight excess (1 μM) of [γ-^33P]GTP for 15 min at 30 °C. Assay initiation involved adding purified recombinant RGS protein previously pre-incubated for 30 min at 30 °C with a candidate inhibitor. […] Supernatant aliquots were then added to liquid scintillation fluid and [^33P]-Pi content (i.e., hydrolyzed GTP) was quantified with a scintillation counter with an appropriate β-transmission window.

THP-1 cell line = experiment: Cytotoxicity assays (CytoTox-Glo, CytoTox 96); type: cell-based; conditions: THP-1 cells, overnight, CytoTox-Glo and CytoTox 96
Procedure: To evaluate cellular toxicity of active compounds, we employed the immortalized human monocytic THP1-Dual cell line (InvivoGen) in two orthogonal cytotoxicity assays: ATP-dependent luminescence (CytoTox-Glo) and colorimetric lactate dehydrogenase (LDH) release (CytoTox 96). For each assay, compounds were serially diluted 2-fold starting at 250 μM and added to 96-well flat-bottom tissue culture plates (Thermo Scientific Nunc, Cat# 165306). THP1-Dual cells were then seeded at 20,000 to 30,000 cells per well in 100 μl RPMI 1640 media supplemented with 10% fetal bovine serum (Gibco). Plates were gently mixed and incubated overnight at 37 °C in a humidified 5% CO2 incubator. For the CytoTox-Glo assay (Promega, Cat# G9291), 50 μl of assay reagent was added to each well. Plates were mixed briefly, sealed, and incubated at room temperature for 15 min before reading luminescence on a TECAN Infinite M1000 Pro plate reader to quantify dead-cell signal. Subsequently, 50 μl of a digitonin-containing lysis solution was added to each well, followed by a second luminescence read after 15 min to assess total cell content. Percent cytotoxicity was calculated per manufacturer instructions. For the CytoTox 96 Non-Radioactive Cytotoxicity Assay (Promega, Cat# G1780), after overnight compound treatment, LDH release into the culture medium was measured by adding the provided substrate mix. Absorbance was read at 490 or 492 nm within 1 h of adding the stop solution. Assay optimization and data normalization were conducted according to the manufacturer’s technical manual.

[4] = biological target: T4, cysteine-less RGS14 RGS-box protein (Homo sapiens, UniProt O43566, C100S/C183S); experiment: Transcreener GDP RGScreen assay with cysteine-less RGS14 RGS-box; type: biochemical; conditions: range given jointly for cysteine-less RGS14 and RGS12 proteins; read-out: estimated IC50, cysteine-less RGS14 RGS-box
T4 construct: human RGS14 RGS-box (aa 46–195 of UniProt O43566); host or cells: E. coli
T4 sequence (O43566 46-195 C100S/C183S): T1 sequence (O43566 46-195) with C55S, C138S
From the text: (§1) Given the earlier experience with screening hit CCG-4986 being a covalent modifier of RGS4 cysteine residues ([35]), we sought to exclude protein-thiol reactivity as a potential mechanism of action of the active compounds derived from the AtomNet virtual screening effort ([55]) and SAR campaign follow-ups. To address this possibility and screen out thiol-reactive hits, cysteine-lacking versions of recombinant proteins spanning the RGS-boxes of RGS14 and RGS12 were purified from E. coli cultures.
(§2) Reagents and protocols for the fluorescence anisotropy-based Transcreener GDP RGScreen assay using a rate-altered, double point-mutant, recombinant Gαi1 protein have been extensively described previously ([43], [44]); reactions were always performed so that total GTP converted over the time course was consistently less than 10% of reaction maximum input. Specific methods for its application in assessing RGS14 and RGS12 GAP activity are summarized as follows. Open-reading frames (ORFs) encoding wild-type versions of the human RGS14 RGS-box (aa 46–195 of UniProt O43566) and human RGS12 RGS-box (aa 695–843 of UniProt O14924) were each sub-cloned in-frame with an N-terminal hexahistidine (His6) expression tag in the plasmid pET30a, expressed in E. coli cultures, and then purified by nickel-nitriloacetate (Ni-NTA) and size-exclusion (Superdex 200) column chromatographies by GenScript using previously described methods ([35]). […]
Supplementary Figure S5. […] (A,B) Recombinant, cysteine residue-lacking (“-cys”) RGS14 RGS-box protein (panel A) and cysteine residue-lacking RGS12 RGS-box protein ([…]) were both observed, in a concentration-dependent fashion (indicated in ng/µL by color), to increase steady-state GDP production by 0.5 ng/µL Gai1(DM) protein in a 20 µL final reaction volume, as measured by the Transcreener® GDP-detection RGScreen™ assay and detected by the change in polarization (ΔmP) at each indicated time point (“enz” = Gai1(DM) protein a.k.a. […]

[5] = biological target: T5, cysteine-less RGS12 RGS-box protein (Homo sapiens, UniProt O14924, C701S/C748S/C775S/C831S); experiment: Transcreener GDP RGScreen assay with cysteine-less RGS12 RGS-box; type: biochemical; conditions: range given jointly for cysteine-less RGS14 and RGS12 proteins; read-out: estimated IC50, cysteine-less RGS12 RGS-box
T5 construct: human RGS12 RGS-box (aa 695–843 of UniProt O14924); host or cells: E. coli
T5 sequence (O14924 695-843 C701S/C748S/C775S/C831S): T2 sequence (O14924 695-843) with C7S, C54S, C81S, C137S
From the text: as §1
as §2, with “Specific methods for its application in assessing RGS14 and RGS12 GAP activity are summarized as follows.” left out

[6] = biological target: T1, human RGS14 RGS-box (wild-type); parameters: method as in earlier work; conditions: Transcreener GDP RGScreen; ref (8); cited from earlier work
[7] = biological target: T2, human RGS12 RGS-box (wild-type); parameters: method as in earlier work; conditions: Transcreener GDP RGScreen; ref (8); cited from earlier work

Ratio (RGS14 pIC50 / RGS12 pIC50) ([1]; values > 1.0 reflect RGS14 selectivity)	IC50 [1] [µM]	IC50 [2] [µM]	pIC50 [4]	pIC50 [5]	Structure (SMILES)	inhibition of RGS14 RGS-box-mediated acceleration of [γ-33P]GTP hydrolysis [3]	cytotoxicity (THP-1 cell line)	estimated pIC50RGS14 [6]	estimated pIC50 RGS12 [7]
1.17	3.63	21.9	–	–	COc1ccc(OCc2nnc3n2N=C(c2cc4ccccc4o2)CS3)cc1 [Z55627844]	inhibit RGS14 RGS-box-mediated acceleration	without measurable cytotoxicity; also recorded: no overt cytotoxicity	–	–
–	63.1	–	4.19 to 4.59	4.19 to 4.59	COc1ccc2[nH]c(SC(C)C(=O)c3c(F)cc(F)cc3F)nc2c1 (stereo not shown) [Z1098346112, 2-[(5-methoxy-1H-1,3-benzodiazol-2-yl)sulfanyl]-1-(2,4,6-trifluorophenyl)propan-1-one]	–	–	4.2	4.4
